Like-named read-outs stand apart in the source and are kept apart here.
Tests used:
[1] = molecular target: NAMPT (Homo sapiens (Human), UniProt P43490); experiment: Assay 1: Biochemical Inhibition Assay (NAMPT enzymatic reaction, NMN quantified by mass spectrometry); details: read-out: Biochemical (IC50);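 also: recombinant His-tagged human NAMPT preincubated with compound 15 min, then reacted 30 min at rt with 1 µM NAM, 100 µM PRPP, 2.5 mM ATP, NMN product read by RapidFire MS, normalized to L-Cystathionine internal standard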
[2] = system: A2780 cells; experiment: Assay 2: In-Vitro Cell Proliferation Assay (A2780 cells, SRB readout, 72 hours); type: cell-based; details: A2780 cells, 72 hours, SRB, read-out: Cell Proliferation (IC50);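 also: viable cells counted via sulforhodamine B staining, absorbance at 570 nm, after 72 h exposure at 37 °C, DMSO 0.1% as control, media-only background subtracted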

Sequence of NAMPT (P43490 whole entry): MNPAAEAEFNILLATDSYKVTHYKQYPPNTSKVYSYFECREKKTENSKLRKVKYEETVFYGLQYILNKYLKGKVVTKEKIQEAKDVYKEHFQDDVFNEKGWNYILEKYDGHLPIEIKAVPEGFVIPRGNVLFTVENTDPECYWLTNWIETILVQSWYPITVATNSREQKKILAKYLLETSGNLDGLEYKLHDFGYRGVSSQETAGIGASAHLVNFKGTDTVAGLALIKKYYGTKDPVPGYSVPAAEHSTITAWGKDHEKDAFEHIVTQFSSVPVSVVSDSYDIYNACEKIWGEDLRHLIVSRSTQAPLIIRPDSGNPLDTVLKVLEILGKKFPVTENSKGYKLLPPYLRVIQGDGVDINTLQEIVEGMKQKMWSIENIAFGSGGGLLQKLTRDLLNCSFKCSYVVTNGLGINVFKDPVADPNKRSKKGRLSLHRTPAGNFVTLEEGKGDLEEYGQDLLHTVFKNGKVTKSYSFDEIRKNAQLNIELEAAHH

SMILES	IC50 [1]	IC50 ([2]; Homo sapiens, A2780, 72 h)	IC50 [2]
C[C@@H]1CN(S(=O)(=O)c2ccc(CNC(=O)c3cc4ccncc4o3)cc2)C[C@H](C)N1C1COC1 [Example 286, N-[[4-[(3S,5R)-3,5-dimethyl-4-(oxetan-3-yl)piperazin-1-yl]sulfonylphenyl]methyl]furo [2,3-c]pyridine-2-carboxamide]	14.5 nM	0.488 nM	–
O=C(NCc1ccc(S(=O)(=O)N2CC3CCC(F)(F)C3C2)cc1)c1cc2ccncc2o1 (stereo not shown) [Example 296, N-[[4-[(4,4-difluoro-1,3,3a,5,6,6a-hexahydrocyclopenta[c]pyrrol-2-yl)sulfonyl]phenyl]methyl]furo [2,3-c]pyridine-2-carboxamide]	9.84 nM	10.1 nM	–
O=C(NCc1ccc(S(=O)(=O)N2CC3CC(F)(F)CC3C2)cc1)c1cc2ccncc2o1 (stereo not shown) [Example 297, N-[[4-[(5,5-difluoro-1,3,3a,4,6,6a-hexahydrocyclopenta[c]pyrrol-2-yl)sulfonyl]phenyl]methyl]furo [2,3-c]pyridine-2-carboxamide]	16.6 nM	51.2 nM	–
COCCN1CCN(S(=O)(=O)c2ccc(CNC(=O)c3cc4ccncc4o3)cc2)CC1 [Example 298, N-[[4-[4-(2-methoxyethyl)piperazin-1-yl]sulfonylphenyl]methyl]furo [2,3-c]pyridine-2-carboxamide]	90.6 nM	24.6 nM	–
O=C(NCc1ccc(S(=O)(=O)N2CCC(CO)CC2)cc1)c1cc2ccncc2o1 [Example 299, N-[[4-[[4-(hydroxymethyl)-1-piperidyl]sulfonyl]phenyl]methyl]furo[2,3-c]pyridine-2-carboxamide]	24.4 nM	11.1 nM	–
O=C(NCc1ccc(S(=O)(=O)N2CCC(F)(F)C2)cc1)c1cc2ccncc2o1 [Example 300, N-[[4-(3,3-difluoropyrrolidin-1-yl)sulfonylphenyl]methyl]furo [2,3-c]pyridine-2-carboxamide]	21.4 nM	21.5 nM	–
O=C(NCc1ccc(S(=O)(=O)N2CC(F)(F)C2)cc1)c1cc2ccncc2o1 [Example 301, N-[[4-(3,3-difluoroazetidin-1-yl)sulfonylphenyl]methyl]furo [2,3-c]pyridine-2-carboxamide]	46.7 nM	83.6 nM	–
O=C(NCc1ccc(S(=O)(=O)N2CC3CCOC3C2)cc1)c1cc2ccncc2o1 (stereo not shown) [Example 302, N-[[4-(2,3,3a,4,6,6a-hexahydrofuro[2,3-c]pyrrol-5-ylsulfonyl)phenyl]methyl]furo [2,3-c]pyridine-2-carboxamide]	41.8 nM	27.1 nM	–
O=C(NCc1ccc(S(=O)(=O)N2CCC3(CCCO3)C2)cc1)c1cc2ccncc2o1 (stereo not shown) [Example 303, N-[[4-(1-oxa-7-azaspiro[4.4]nonan-7-ylsulfonyl)phenyl]methyl]furo [2.3-c]pyridine-2-carboxamide]	22.7 nM	15.4 nM	–
O=C(NCc1ccc(S(=O)(=O)N2CC3CC2CO3)cc1)c1cc2ccncc2o1 (stereo not shown) [Example 304, N-[[4-(2-oxa-5-azabicyclo[2.2.1]heptan-5-ylsulfonyl)phenyl]methyl]furo [2,3-c]pyridine-2-carboxamide]	65.2 nM	41.9 nM	–
O=C(NCc1ccc(S(=O)(=O)N2CC3CCC(C2)O3)cc1)c1cc2ccncc2o1 [Example 305, N-[[4-(8-oxa-3-azabicyclo[3.2.1]octan-3-ylsulfonyl)phenyl]methyl]furo [2,3-c]pyridine-2-carboxamide]	41.4 nM	17.8 nM	–
O=C(NCc1ccc(S(=O)(=O)N2CCCCC2)cc1)c1ccn2cncc2c1 [Example 308, N-[[4-(1-piperidylsulfonyl)phenyl]methyl]imidazo[1,5-a]pyridine-7-carboxamide]	1420 nM	2000 nM	–
CCC(=O)N1CCC(S(=O)(=O)c2ccc(CNC(=O)c3cc4ccncc4o3)cc2)CC1 [Example 312, N-[[4-[(1-propanoyl-4-piperidyl)sulfonyl]phenyl]methyl]furo[2,3-c]pyridine-2-carboxamide]	113 nM	48.9 nM	–
CC(C)C(=O)N1CCC(S(=O)(=O)c2ccc(CNC(=O)c3cc4ccncc4o3)cc2)CC1 [Example 313, N-[[4-[[1-(2-methylpropanoyl)-4-piperidyl]sulfonyl]phenyl]methyl]furo[2,3-c]pyridine-2-carboxamide]	35 nM	53.8 nM	–
CCCC(=O)N1CCC(S(=O)(=O)c2ccc(CNC(=O)c3cc4ccncc4o3)cc2)CC1 [Example 314, N-[[4-[(1-butanoyl-4-piperidyl)sulfonyl]phenyl]methyl]furo[2,3-c]pyridine-2-carboxamide]	20.3 nM	51.9 nM	–
CC(C)N1CCC(S(=O)(=O)c2ccc(CNC(=O)c3ccc4nccn4c3)cc2)CC1 [Example 315, N-[[4-[(1-isopropyl-4-piperidyl)sulfonyl]phenyl]methyl]imidazo[1,2-a]pyridine-6-carboxamide]	89 nM	30.3 nM	–

SMILES	IC50 [1]	IC50 ([2]; Homo sapiens, A2780, 72 h)	IC50 [2]
NC1CCN(S(=O)(=O)c2ccc(CNC(=O)c3ccc4nccn4c3)cc2)CC1 [Example 317, N-[[4-[(4-amino-1-piperidyl)sulfonyl]phenyl]methyl]imidazo[1,2-a]pyridine-6-carboxamide]	82.1 nM	87.7 nM	–
O=C(NCc1ccc(S(=O)(=O)N2CCOC3(CCNCC3)C2)cc1)c1ccc2nccn2c1 [Example 319, N-[[4-(1-oxa-4,9-diazaspiro[5.5]undecan-4-ylsulfonyl)phenyl]methyl] imidazo[1,2-a]pyridine-6-carboxamide]	106 nM	102 nM	–
NC12CC1CN(S(=O)(=O)c1ccc(CNC(=O)c3ccc4nccn4c3)cc1)C2 (stereo not shown) [Example 320, N-[[4-[(5-amino-3-azabicyclo[3.1.0]hexan-3-yl)sulfonyl]phenyl]methyl] imidazo[1,2-a]pyridine-6-carboxamide]	68.7 nM	61.9 nM	–
O=C(NCc1ccc(S(=O)(=O)N2CCC3(CCCN3)CC2)cc1)c1ccc2nccn2c1 [Example 321, N-[[4-(1,8-diazaspiro[4.5]decan-8-ylsulfonyl)phenyl]methyl] imidazo[1,2-a]pyridine-6-carboxamide]	65.1 nM	54 nM	–
O=C(NCc1ccc(S(=O)(=O)N2CCOC3(CCCNC3)C2)cc1)c1ccc2nccn2c1 (stereo not shown) [Example 322, N-[[4-(1-oxa-4,8-diazaspiro[5.5]undecan-4-ylsulfonyl)phenyl]methyl] imidazo[1,2-a]pyridine-6-carboxamide]	43.4 nM	39 nM	–
NC1CC2(CCN(S(=O)(=O)c3ccc(CNC(=O)c4ccc5nccn5c4)cc3)CC2)C1 [Example 323, N-[[4-[(2-amino-7-azaspiro[3.5]nonan-7-yl)sulfonyl]phenyl]methyl] imidazo[1,2-a]pyridine-6-carboxamide]	17.7 nM	13.3 nM	–
O=C(NCc1ccc(S(=O)(=O)N2CCC3(CCNCC3)CC2)cc1)c1ccc2nccn2c1 [Example 324, N-[[4-(3,9-diazaspiro[5.5]undecan-3-ylsulfonyl)phenyl]methyl] imidazo[1,2-a]pyridine-6-carboxamide]	19.2 nM	24.8 nM	–
O=C(NCc1ccc(S(=O)(=O)N2CCC3(CCCNC3)CC2)cc1)c1ccc2nccn2c1 [Example 325, N-[[4-(2,9-diazaspiro[5.5]undecan-9-ylsulfonyl)phenyl]methyl] imidazo[1,2-a]pyridine-6-carboxamide]	25.6 nM	27.5 nM	–
O=C(NCc1ccc(S(=O)(=O)N2CCCC3(CCCCN3)C2)cc1)c1ccc2nccn2c1 (stereo not shown) [Example 326, N-[[4-(1,8-diazaspiro[5.5]undecan-8-ylsulfonyl)phenyl]methyl] imidazo[1,2-a]pyridine-6-carboxamide]	107 nM	–	60.1 nM
O=C(NCc1ccc(S(=O)(=O)N2CCOC3CNCC32)cc1)c1ccc2nccn2c1 (stereo not shown) [Example 327, N-[[4-(3,4a,5,6,7,7a-hexahydro-2H-pyrrolo[3,4-b][1,4]oxazin-4-ylsulfonyl)phenyl]methyl] imidazo[1,2-a]pyridine-6-carboxamide]	1300 nM	2000 nM	–
NCC12CC(CN1S(=O)(=O)c1ccc(CNC(=O)c3ccc4nccn4c3)cc1)C2 [Example 328, N-[[4-[[4-(aminomethyl)-3-azabicyclo[2.1.1]hexan-3-yl]sulfonyl]phenyl]methyl) imidazo[1,2-a]pyridine-6-carboxamide]	1680 nM	2000 nM	–
O=C(NCc1ccc(S(=O)(=O)N2CC3CNCC3C2)cc1)c1ccc2nccn2c1 (stereo not shown) [Example 329, N-[[4-(2,3,3a,4,6,6a-hexahydro-1H-pyrrolo[3,4-c]pyrrol-5-yIsulfonyl)phenyl]methyl] imidazo[1,2-a]pyridine-6-carboxamide]	79.3 nM	93.3 nM	–
O=C(NCc1ccc(S(=O)(=O)N2CC(C3CCCNC3)c3ccccc32)cc1)c1ccc2nccn2c1 (stereo not shown) [Example 330, N-[[4-[3-(3-piperidyl)indolin-1-yl]sulfonylphenyl]methyl] imidazo[1,2-a]pyridine-6-carboxamide]	22.2 nM	42.8 nM	–
O=C(NCc1ccc(S(=O)(=O)N2CCCC23CCNCC3)cc1)c1ccc2nccn2c1 [Example 331, N-[[4-(1,8-diazaspiro[4.5]decan-1-ylsulfonyl)phenyl]methyl] imidazo[1,2-a]pyridine-6-carboxamide]	355 nM	774 nM	–
O=C(NCc1ccc(S(=O)(=O)N2CC3CCNC3C2)cc1)c1ccc2nccn2c1 (stereo not shown) [Example 332, N-[[4-(2,3,3a,4,6,6a-hexahydro-1H-pyrrolo[3,4-b]pyrrol-5-ylsulfonyl)phenyl]methyl] imidazo[1,2-a]pyridine-6-carboxamide]	174 nM	171 nM	–
O=C(NCc1ccc(S(=O)(=O)N2CC3CNCC(C2)O3)cc1)c1ccc2nccn2c1 [Example 333, N-[[4-(9-oxa-3,7-diazabicyclo[3.3.1]nonan-3-ylsulfonyl)phenyl]methyl] imidazo[1,2-a]pyridine-6-carboxamide]	320 nM	286 nM	–
